Series [1] can be described thus: DLS association of DAP with fondaparinux. The series is classed as binding. On the procedure:
Rivaroxaban (XARELTO®) alone, DAP alone, and DAP:rivaroxaban combinations at mass ratios of 1:1 and 10:1 were added into an aqueous solution and analyzed by dynamic light scattering (DLS) to assess association of the DAP and rivaroxaban. A similar experiment was conducted on apixaban (ELIQUIS®) alone, DAP alone, and DAP:apixaban combinations at mass ratios of 1:1, 10:1 and 100:1. Fondaparinux (ARIXTRA®) alone, DAP alone, and fondaparinux:DAP combinations at mass ratios of 1:1, 10:1 and 100:1 were similarly tested. LMWH (bemiparin; HIBOR®), alone, DAP alone, and LMWH:DAP combinations at mass ratios of 1:1, 10:1, and 100:1 were also tested. The concentration of LMWH tested was 0.1 mg/ml. Therefore, at 1:1, 0.1 mg/ml DAP was tested, at 10:1, 1 mg/ml was tested, and at 100:1, 10 mg/ml DAP was tested.

The nature of series [2]: DLS association of DAP with argatroban. The series is classed as binding. The note with it: concentrations up to 1:1000.
In series [3] the test system is dabigatran (PRADAXA®) anticoagulation. The series can be described thus: DAP reversal of dabigatran (PRADAXA®) anticoagulation in vivo, aPTT. Details: species or system rat. The source says:
The activated partial thromboplastin time (aPTT) assay is an assay that measures how long it takes for the blood to clot. Blood samples are collected for direct measurement or in tubes with oxalate and citrate to arrest coagulation by calcium until the assay can be performed. In the assay, a phospholipid, an activator (silica, celite, kaolin, ellagic acid, etc.), and calcium are mixed into the plasma to induce coagulation. The assay measures the time until a thrombus (clot) forms.
A male albino rat, weighing 430 g, was administered 40 mg/kg of PRADAXA® (20 mg PRADAXA®; overdose of PRADAXA®) by oral gavage.
Approximately 2 hours into PRADAXA® treatment, 200 mg/kg DAP (100 mg DAP) was administered as an intravenous bolus injection. Approximately 2 hours later, the rat was administered a dose of 100 mg/kg of DAP (50 mg DAP). In another hour, the rat was administered another dose of 100 mg/kg of DAP (50 mg DAP). aPTT was measured throughout the course of the entire treatment.

In series [4] the test system is apixaban (ELIQUIS®) anticoagulation. The series can be described thus: Rat tail transection bleeding assay, apixaban. The series is classed as in vivo. The settings on record: for blood loss (blood collected over 30 minutes): p<0.01 vs apixaban only. On the procedure:
Rat tail bleeding assay or rat tail transection assay is an assay that measures blood loss, e.g., blood loss after drug administration. In one embodiment, where the effect of the compound of the invention (e.g., DAP) is being tested, at the Tmax of the anticoagulant, DAP is administered intravenously. After 20 minutes, rat tails are transected approximately 1 mm from the tip, placed in room temperature saline, and blood is collected for 30 minutes and weighed.
Three rats each were administered 2 mg of rivaroxaban. One rat received a sham reversal containing no DAP, the second received 2.5 mg of DAP, and the third received 12.5 mg DAP. A fourth fat received sham anticoagulant and reversal doses (“sham”). 20 minutes after the reversal dose, tails were transected 1 mm from the tip, placed in room temperature saline, and blood loss was collected for 30 minutes and then weighed.
Same procedures were used with 1.25 mg apixaban (ELIQUIS®) alone or in combination with 5 or 12.5 mg DAP; with 15.5 mg dabigatran etexilate (PRADAXA®) alone or in combination with 5 or 12.5 mg DAP; and with 5 mg edoxaban (LIXIANA®) alone or in combination with 12.5 mg DAP.

Series [5] deals with rivaroxaban-induced anticoagulation. The series is described as follows: DAP reversal of rivaroxaban in freshly drawn human blood ex vivo, aPTT. The format is biochemical. The settings on record: 0.25 μg/ml rivaroxaban, 50 μg/ml DAP. On the procedure: Human blood was drawn from a volunteer. Rivaroxaban at 0.25 μg/ml was added alone or in combination with 50 μg/ml DAP. Controls contained 50 μg/ml DAP or saline. aPTT was measured within 2 minutes of blood collection.

Series [6] concerns rivaroxaban anticoagulation. The series can be described thus: DAP reversal of rivaroxaban in human plasma ex vivo, Biophen anti-Factor Xa chromogenic assay. The format is biochemical. On the procedure:
The anti-factor Xa assay directly measures anti-factor Xa activity. The methodology behind an anti-factor Xa assay is that patient plasma is added to a known amount of excess factor Xa and excess antithrombin. If a factor Xa inhibitor is present in the patient plasma, it will reduce the enzymatic activity of factor Xa. The amount of residual factor Xa is inversely proportional to the amount of anti-Xa agent in the plasma. The amount of residual factor Xa is detected by adding a chromogenic substrate that mimics the natural substrate of factor Xa, making residual factor Xa cleave it, releasing a colored compound that can be detected by a spectrophotometer. […]
218 μg/L or 459 μg/L of rivaroxaban was added to human plasma, with or without 1,250 μg/L or 6,250 μg/L of DAP, respectively. […] DAP effect on anticoagulation was measured by 510 k cleared Biophen anti-Factor Xa chromogenic assay. Rivaroxaban concentrations were determined by comparison with plasma calibration standards, while apixaban concentrations were inferred from stock solution dilutions as calibration standards are not yet available.
218 μg/L rivaroxaban was added to human plasma either alone or in combination with 1.25, 12.5, 125, or 1,250 μg/L of DAP. Factor Xa activity was measured by 510 k cleared Biophen anti-Xa chromogenic assay kit. Rivaroxaban concentrations were determined by comparison with plasma calibration standards.

The nature of series [7]: Intravenous DAP tolerability in rats. The series is classed as in vivo, rat. The note with it: DAP i.v. at 100 mg/kg, 250 mg/kg and 400 mg/kg in rats.
Series [8] in a line: Oral bioavailability of DAP in rats. The series is classed as in vivo, rat.
The target in a further series is human ERG (Homo sapiens, UniProt Q12809). The series is described as follows: Human ERG binding. The note with it: data not shown.
human ERG, sequence (Q12809 whole entry): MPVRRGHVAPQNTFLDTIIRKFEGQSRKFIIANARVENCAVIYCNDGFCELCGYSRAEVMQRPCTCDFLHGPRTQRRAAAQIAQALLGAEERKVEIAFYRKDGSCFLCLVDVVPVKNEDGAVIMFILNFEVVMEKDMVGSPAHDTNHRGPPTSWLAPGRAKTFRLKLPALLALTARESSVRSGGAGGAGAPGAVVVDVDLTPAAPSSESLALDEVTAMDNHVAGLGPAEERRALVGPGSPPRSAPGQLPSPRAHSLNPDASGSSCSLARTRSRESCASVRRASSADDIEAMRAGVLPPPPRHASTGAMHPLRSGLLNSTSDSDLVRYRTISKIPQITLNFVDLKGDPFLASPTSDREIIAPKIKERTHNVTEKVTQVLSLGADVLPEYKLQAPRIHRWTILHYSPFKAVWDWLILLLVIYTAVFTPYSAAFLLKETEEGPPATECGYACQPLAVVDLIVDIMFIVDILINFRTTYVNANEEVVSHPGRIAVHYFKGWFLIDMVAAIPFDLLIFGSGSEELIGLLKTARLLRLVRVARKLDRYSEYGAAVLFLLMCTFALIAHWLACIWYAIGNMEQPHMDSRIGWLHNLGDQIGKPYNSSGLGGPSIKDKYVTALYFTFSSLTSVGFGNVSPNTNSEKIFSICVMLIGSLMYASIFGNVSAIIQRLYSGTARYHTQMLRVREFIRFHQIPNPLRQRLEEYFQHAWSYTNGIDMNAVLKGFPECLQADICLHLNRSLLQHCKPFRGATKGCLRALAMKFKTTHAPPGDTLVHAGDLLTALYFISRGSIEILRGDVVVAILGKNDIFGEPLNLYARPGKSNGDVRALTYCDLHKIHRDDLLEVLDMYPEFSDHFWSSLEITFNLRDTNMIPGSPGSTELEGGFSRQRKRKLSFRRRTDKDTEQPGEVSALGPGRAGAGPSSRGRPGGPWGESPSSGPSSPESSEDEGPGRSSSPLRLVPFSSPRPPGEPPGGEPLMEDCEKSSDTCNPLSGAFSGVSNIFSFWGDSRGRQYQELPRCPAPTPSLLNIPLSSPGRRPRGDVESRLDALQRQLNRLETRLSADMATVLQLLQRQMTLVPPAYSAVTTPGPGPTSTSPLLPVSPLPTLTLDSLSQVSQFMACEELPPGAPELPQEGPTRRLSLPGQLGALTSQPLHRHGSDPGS
In a further series the test system is CYP enzymes. The series can be described thus: CYP enzyme inhibition / substrate. The series is classed as in vitro ADME. The note with it: data not shown.

“Also recorded” adds a separate entry of the source.

The record followed here is US9877961B2, “Anticoagulant reversal agents” (PEROSPHERE INC., priority 2011, dated 2018).

With `N=C(N)NCCC[C@H](N)C(=O)NCCCN1CCN(CCCNC(=O)[C@@H](N)CCCNC(=N)N)CC1` (stereo in doubt) [DAP, 2-Amino-5-guanidino-pentanoic acid (3-{4-[3-(2-amino-5-guanidino-pentanoylamino)-propyl]-piperazin-1-yl}-propyl)-amide], the figures for the “binding by DLS” value in series [1] and in series [2] were “directly bound” and “did not bind”, respectively. The “aPTT risen back after first DAP dose” value in series [3] (2 hours after 100 mg DAP) is 79 s. Further, the “aPTT risen after second DAP dose” value in series [3] (after 50 mg DAP) amounted to 53 s. For the same compound, the “time until aPTT returned above baseline following DAP administration” value in [3] (both times (first and second DAP dose)) was at most 60 min. Besides, the “time until aPTT below baseline after DAP” value in series [3] (first dose, 100 mg DAP (200 mg/kg) i.v. bolus) was at most 25 min; in series [3] (second dose, 50 mg DAP (100 mg/kg)), at most 30 min. For the same compound, the elimination half-life entry in series [3] (inferred from return of anti-coagulation in rats) is reported as “short elimination half-life”. For the same compound, in [3] (intravenous bolus dose of DAP in rats), the “time until PRADAXA®-induced anti-coagulation returned after DAP” value lay in the range of 20 to 30 min. Moreover, the “reversal of oral dabigatran anticoagulation in vivo” value in series [3] (rats, aPTT) is “reversed”. For the same compound, the “time until aPTT dropped to baseline after DAP” value in [3] (third dose, 100 mg/kg (50 mg) DAP i.v.) is at most 20 min. The “blood loss (blood collected over 30 minutes)” value in series [4] (1.25 mg apixaban and 5 mg DAP) is reported as “reduced blood loss to sham dose levels”; in series [4] (1.25 mg apixaban and 12.5 mg DAP), “reduced blood loss to sham dose levels”. Further, the “reversal of apixaban, blood loss vs anticoagulant only” value in series [4] (rat tail transection, 30 minutes) is on record as “reversed; also recorded: statistically significant reduction in blood loss”. Besides, in series [5], the “effect on rivaroxaban-induced anticoagulation, aPTT” value is “reversal of rivaroxaban-induced anticoagulation”. The “effective anticoagulant concentration after DAP” value in [6] (218 μg/L rivaroxaban with 1,250 μg/L DAP, 459 μg/L rivaroxaban with 6,250 μg/L DAP) is “below the minimum effective concentration”. In addition, the “dose dependence of rivaroxaban reversal” value in [6] (218 μg/L rivaroxaban, 1.25, 12.5, 125, or 1,250 μg/L DAP) is given as “dose-responsive trend; also recorded: dose-dependent reversal”. The adverse effects entry in series [7] was “no adverse effect”. In addition, in [8], the oral bioavailability result is “orally bioavailable”. Besides, on human ERG, the “human ERG binding” value was “no human ERG binding”. The “inhibition / substrate of CYP enzymes” value with CYP enzymes is given as “did not inhibit or serve as a substrate”.
